This data set has as its system aqueous buffer solubility, pH 5.0/6.2/7.4. Briefly: aqueous buffer solubility at three pH values, ADME assay, biophysical, set 2 (AID 624323). The following applies: at 100 µM, stronger effect = higher value.
[1] abbreviates: measured here: solubility at pH 5.0.
[2] abbreviates: measured here: solubility at pH 6.2.

Values after ≈ are worked out from the molar mass of the structure shown. Active and inactive are the calls of the source. The rule behind the calls is not given here. A value given as a limit tells only on which side of the number the result lay.

Turning to `COc1ccc(C2CC(c3ccccc3)=NN2c2ccc(S(N)(=O)=O)cc2)cc1` (stereo unspecified), the solubility was 0.05 µg/mL (inactive) (≈ 0.123 µM). Under setting [1], this compound came in with a solubility of 0.06 µg/mL (≈ 0.147 µM). The same compound gave a solubility under setting [2] of 0.04 µg/mL (≈ 0.0982 µM).

Turning to `CS(=O)(=O)c1ccc(C(=O)OCC(=O)NC23CC4CC(CC(C4)C2)C3)cc1[N+](=O)[O-]`, the solubility was 3 µg/mL (inactive) (≈ 6.87 µM). Under setting [1], this compound displayed a solubility of 1.8 µg/mL (≈ 4.12 µM). For the same compound, under setting [2], the solubility is 2.5 µg/mL (≈ 5.73 µM).

For the compound `Cc1ccc(C(=O)n2c3ccccc3c3ccccc32)cc1`, the solubility was < 0.01 µg/mL (inactive). The same compound had a solubility under setting [1] of under 0.01 µg/mL. The solubility under setting [2] was under 0.01 µg/mL.

Take `CCOc1ccc(-c2nc(-c3ccncc3)no2)cc1OCC`: the solubility is 1.3 µg/mL (inactive) (≈ 4.18 µM). The same compound showed a solubility under setting [1] of 1.1 µg/mL (≈ 3.53 µM). Under setting [2], this compound showed a solubility of 1.3 µg/mL (≈ 4.18 µM).

With `N#Cc1ccccc1CSc1nc2ncc(Br)cc2[nH]1`, the solubility is 0.54 µg/mL (inactive) (≈ 1.56 µM). Moreover, under setting [1], the solubility amounted to 0.42 µg/mL (≈ 1.22 µM). The compound also showed a solubility under setting [2] of 0.52 µg/mL (≈ 1.51 µM).

Consider `O=C(O)c1cccnc1SCCc1ccccc1`, for which the solubility is over 26 µg/mL. Under setting [1], this compound returned a solubility of over 26 µg/mL. The same compound registered a solubility under setting [2] of over 26 µg/mL.

In the case of `COc1ccc(N(C(=O)CCl)C(C(=O)NCCc2ccccc2)c2cccs2)cc1Cl` (stereo unspecified), the solubility is 1.2 µg/mL (inactive) (≈ 2.51 µM). Further, the solubility under setting [1] came out at 0.61 µg/mL (≈ 1.28 µM). Under setting [2], the solubility was found to be 0.86 µg/mL (≈ 1.8 µM).

Consider `O=[N+]([O-])c1ccc(CN2CCOCCOCCN(Cc3ccc([N+](=O)[O-])cc3)CCOCC2)cc1`, for which the solubility is 27.4 µg/mL (≈ 56.1 µM). Moreover, the solubility under setting [1] is over 48 µg/mL. The compound also showed a solubility under setting [2] of over 48 µg/mL.

As for `Cc1cc(-c2nnc3n2CCCCC3)c(C)n1-c1ccccc1`, the solubility is over 30 µg/mL. This compound returned a solubility under setting [1] of over 30 µg/mL. Further, the solubility under setting [2] is over 30 µg/mL.

Turning to `Cc1ccc(C)c(OCCn2cc(C(=O)O)c3ccccc32)c1`, the solubility was 20.1 µg/mL (≈ 65 µM). Under setting [1], this compound yielded a solubility of 0.19 µg/mL (≈ 0.614 µM). In addition, the solubility under setting [2] is 0.34 µg/mL (≈ 1.1 µM).

`Cc1ccnc(NC(=O)CCCOc2cc(=O)n(C)c3ccccc23)c1`: the solubility is 9.1 µg/mL (inactive) (≈ 25.9 µM). The compound further returned a solubility under setting [1] of 19 µg/mL (≈ 54.1 µM). Besides, the solubility under setting [2] is 9.3 µg/mL (≈ 26.5 µM).

Turning to `CCCC(=O)Nc1cccc(NC(=O)c2ccccc2Br)c1`, the solubility was over 36 µg/mL. The solubility under setting [1] was over 36 µg/mL. Under setting [2], this compound registered a solubility of over 36 µg/mL.

Turning to `COc1ccc(CSc2nc(C)cc(=O)[nH]2)cc1`, the solubility was over 26 µg/mL. The solubility under setting [1] was over 26 µg/mL. The compound also gave a solubility under setting [2] of over 26 µg/mL.

On to `COc1ccc(Sc2ccc(NC(=O)c3ccccc3Cl)cc2C#N)cc1`, for which the solubility was 0 µg/mL (inactive). Besides, under setting [1], the solubility came out at 0.01 µg/mL (≈ 0.0253 µM). Further, under setting [2], the solubility was under 0.01 µg/mL.

For the compound `CCOc1ccc(NC(=S)N2CCC(C(O)(c3ccccc3)c3ccccc3)CC2)cc1`, the solubility was 0.37 µg/mL (inactive) (≈ 0.828 µM). Under setting [1], this compound registered a solubility of 1.1 µg/mL (≈ 2.46 µM). Under setting [2], this compound showed a solubility of 0.8 µg/mL (≈ 1.79 µM).

As to `CCCN(CCC)CCNC(=O)C1CCN(Cc2nc(-c3ccc(Cl)cc3)oc2C)CC1`, the solubility is over 46 µg/mL. In addition, under setting [1], the solubility is over 46 µg/mL. The solubility under setting [2] was over 46 µg/mL.

For the compound `CCCN1CNc2c(c(=O)[nH]c(=S)n2CCc2ccc(OC)c(OC)c2)C1`, the solubility was over 39 µg/mL. The compound further registered a solubility under setting [1] of over 39 µg/mL. The same compound returned a solubility under setting [2] of over 39 µg/mL.

`Cc1ccc(NC(=O)CCC(=O)N/N=C/c2ccc([N+](=O)[O-])o2)cc1C`: the solubility is 0.29 µg/mL (inactive) (≈ 0.809 µM). The compound further had a solubility under setting [1] of 0.19 µg/mL (≈ 0.53 µM). Under setting [2], this compound had a solubility of 0.3 µg/mL (≈ 0.837 µM).

`Cc1ccc(-n2c(N)c(C#N)c(-c3ccccc3)c(C#N)c2=O)cc1`: the solubility is 0.84 µg/mL (inactive) (≈ 2.57 µM). The compound also came in with a solubility under setting [1] of 0.79 µg/mL (≈ 2.42 µM). Under setting [2], this compound had a solubility of 0.93 µg/mL (≈ 2.85 µM).

As for `Brc1cc2c(cc1C1Nc3ccccc3C3C=CCC31)OCO2` (stereo unspecified), the solubility was < 0.01 µg/mL (inactive). The same compound showed a solubility under setting [1] of under 0.01 µg/mL. The solubility under setting [2] is 0.04 µg/mL (≈ 0.108 µM).

With `COc1cccc(-c2nc(-c3ccc(NC(=O)Cc4ccccc4OC)cc3)no2)c1`, the solubility was < 0.01 µg/mL (inactive). In addition, the solubility under setting [1] was found to be 0.09 µg/mL (≈ 0.217 µM). Also, the solubility under setting [2] came out at 0.05 µg/mL (≈ 0.12 µM).

Take `CC1CCCN(C(C(=O)Nc2ccc3c(c2)OCCO3)c2ccccc2)C1` (stereo unspecified): the solubility is 1.7 µg/mL (inactive) (≈ 4.64 µM). Under setting [1], this compound returned a solubility of over 36 µg/mL. For the same compound, under setting [2], the solubility was over 36 µg/mL.

`c1ccc2c(Nc3nnc(-c4ccncc4)s3)cccc2c1`: the solubility was 3.5 µg/mL (inactive) (≈ 11.5 µM). Under setting [1], this compound gave a solubility of 3.3 µg/mL (≈ 10.8 µM). Under setting [2], this compound displayed a solubility of 3.5 µg/mL (≈ 11.5 µM).

As for `O=C1NCCCc2c1oc1ccc(O)cc21`, the solubility is over 22 µg/mL. The solubility under setting [1] is over 22 µg/mL. This compound showed a solubility under setting [2] of over 22 µg/mL.

Consider `Cc1cc2c(s1)c1cnn(Cc3ccccc3F)c(=O)c1n2C`, for which the solubility was 0.11 µg/mL (inactive) (≈ 0.336 µM). Further, the solubility under setting [1] came out at 0.16 µg/mL (≈ 0.489 µM). The same compound yielded a solubility under setting [2] of 0.19 µg/mL (≈ 0.58 µM).

Regarding `CC(C)C(=O)NC(c1ccco1)c1ccc2cccnc2c1O` (stereo unspecified), the solubility is 3.3 µg/mL (inactive) (≈ 10.6 µM). The compound further displayed a solubility under setting [1] of 2.8 µg/mL (≈ 9.02 µM). Under setting [2], the solubility is 2.7 µg/mL (≈ 8.7 µM).

As for `Cc1ccc(NS(=O)(=O)c2ccc3c(c2)CCC(=O)N3)cc1C`, the solubility is 27.1 µg/mL (≈ 82 µM). The solubility under setting [1] worked out at 26.2 µg/mL (≈ 79.3 µM). The same compound showed a solubility under setting [2] of over 33 µg/mL.

With `Cc1ccc(S(=O)(=O)NCc2ccc(C(=O)NCCN(Cc3ccccc3)C(C)C)cc2)cc1`, the solubility is 19.6 µg/mL (≈ 40.9 µM). Also, under setting [1], the solubility was over 47 µg/mL. In addition, the solubility under setting [2] was 34.7 µg/mL (≈ 72.3 µM).

On to `C/C=C/Cn1c(SCCCc2ccccc2)nc2c1c(=O)[nH]c(=O)n2C`, for which the solubility was 0.39 µg/mL (inactive) (≈ 1.05 µM). Under setting [1], the solubility turned out to be 0.24 µg/mL (≈ 0.648 µM). This compound also yielded a solubility under setting [2] of 0.31 µg/mL (≈ 0.837 µM).

Consider `CCN1CCN(c2nc3ccccc3nc2C(C#N)C(=O)OC2CCCCC2)CC1` (stereo unspecified), for which the solubility is 25.8 µg/mL (≈ 63.3 µM). The solubility under setting [1] is over 40 µg/mL. Moreover, the solubility under setting [2] was over 40 µg/mL.

Consider `CC(C)(C)OC(=O)NCCc1nnc(S(=O)(=O)Cc2ccc(Cl)cc2Cl)o1`, for which the solubility is 7.4 µg/mL (inactive) (≈ 17 µM). Further, the solubility under setting [1] stood at 14.6 µg/mL (≈ 33.5 µM). Moreover, the solubility under setting [2] amounted to 4.8 µg/mL (≈ 11 µM).

Turning to `Cc1ccccc1N1CCN(c2ncnc3c2cnn3Cc2ccc(Cl)cc2)CC1`, the solubility was < 0.01 µg/mL (inactive). Under setting [1], this compound registered a solubility of 0.03 µg/mL (≈ 0.0716 µM). Under setting [2], this compound yielded a solubility of under 0.01 µg/mL.

As to `CC(=O)c1ccc(N2CCN(S(=O)(=O)c3ccc4c(c3)CC(=O)N4)CC2)cc1`, the solubility was 3.5 µg/mL (inactive) (≈ 8.76 µM). The compound further gave a solubility under setting [1] of 3.2 µg/mL (≈ 8.01 µM). The same compound had a solubility under setting [2] of 3.7 µg/mL (≈ 9.26 µM).

For `Cc1cc(C)n(-c2nc(NCCCO)c3c4c(sc3n2)CCCC4)n1`, the solubility was 20.7 µg/mL (≈ 57.9 µM). Also, the solubility under setting [1] is 17.6 µg/mL (≈ 49.2 µM). In addition, the solubility under setting [2] was found to be 20.4 µg/mL (≈ 57.1 µM).

In the case of `CN(C)c1oc(-c2ccc(OCc3ccc(Cl)cc3)cc2)nc1C#N`, the solubility is 0.08 µg/mL (inactive) (≈ 0.226 µM). Under setting [1], this compound showed a solubility of 0.17 µg/mL (≈ 0.48 µM). The compound further yielded a solubility under setting [2] of under 0.01 µg/mL.

In the case of `O=c1c2ccccc2[se]n1-c1ccccc1`, the solubility is 5.6 µg/mL (inactive) (≈ 20.4 µM). In addition, under setting [1], the solubility amounted to 5 µg/mL (≈ 18.2 µM). The compound also displayed a solubility under setting [2] of 6 µg/mL (≈ 21.9 µM).

On to `COc1ccc(CNCc2cccc3ccccc23)cc1`, for which the solubility is 26.2 µg/mL (≈ 94.5 µM). In addition, the solubility under setting [1] was over 36 µg/mL. In addition, the solubility under setting [2] is over 36 µg/mL.

For the origin of these results see PubChem BioAssay AID624323 (Sanford-Burnham Center for Chemical Genomics, 2012).
